Data as given in patent publication US20020061838A1, “Peptide pharmaceutical formulations” (priority 2000, published 2002).

Assays:
[1] = Long-term stability in the preferred embodiment (HPLC and/or bioactivity)
Description: The vials containing 1 mL of formulated drug were put into thermostatted chambers and assayed for % peptide remaining as a function of time after storage at different temperatures. Bioactivity of the formulations at the time points was also measured.
GRF activity was assessed similarly using a cell line containing an expressed GRF receptor and monitoring the response of cell to GRF by the cAMP-responsive secreted alkaline phosphatase reporter system.

[2] = Tolerability and response after subcutaneous or intravenous delivery of the formulations in humans
[3] = Total GRF in plasma after intravenous bolus in a rat; type: in vivo; details: intravenous bolus of 20 μg, 10 mM sodium acetate, 5.07% D-mannitol, pH 4.7
Description: Total GRF detected in the plasma of a rat following intravenous administration of 20 μg of GRF in the preferred formulation (4 mg/mL GRF dissolved in 10 mM sodium acetate, 5.07% D-mannitol, adjusted to pH 4.7).

[4] = Stability of GLP-1, PTH and GRF in the preferred formulation by reversed phase HPLC (percent peptide remaining); details: 10 mM acetate; for Percent peptide remaining: 5.07% (w/v) D-mannitol, pH 4.7; for stability: 4, 8, and 10 mg/mL, pH 4.7, 5.07% D-mannitol
Description: The vials were stored at the indicated temperatures for the indicated times. Samples were removed and assayed for the loss of parent peptide by HPLC, using a reversed phase C18 (1×15 cm) analytical column. Samples (10 μl) were injected directly and resolved with a gradient of acetonitrile in water, in the presence of 0.1% trifluoroacetic acid. Percent peptide remaining at the times indicated was calculated as the area of the intact peptide divided by the total area of the intact peptide plus that of the decomposition products times 100.

[5] = pH 7.4; cited from earlier work

stability (additional formulations, extended periods) ([1]; 4-6 weeks at 25° C.) | stability (additional formulations, extended periods) ([1]; 12 months at 4° C.) | stability compared with the GLP-1 formulations ([1]; formulations where the peptide is GRF or PTH, Drawings 3, 5) | appearance of peptide in blood plasma [3] | Percent peptide remaining ([4]; 4 mg/mL, 14 days, 4° C.) [%] | Percent peptide remaining ([4]; 4 mg/mL, 14 days, 25° C.) [%] | Percent peptide remaining ([4]; 4 mg/mL, 14 days, 50° C.) [%] | Percent peptide remaining ([4]; 8 mg/mL, 14 days, 4° C.) [%] | Percent peptide remaining ([4]; 8 mg/mL, 14 days, 25° C.) [%] | Percent peptide remaining ([4]; 8 mg/mL, 14 days, 50° C.) [%] | Percent peptide remaining ([4]; 10 mg/mL, 14 days, 4° C.) [%] | Percent peptide remaining ([4]; 10 mg/mL, 14 days, 25° C.) [%] | Percent peptide remaining ([4]; 10 mg/mL, 14 days, 50° C.) [%] | stability ([4]; 25° C., 14 days) | stability ([4]; 50° C., 14 days) [%] | stability ([4]; −20° C. to 4° C., over 14 days) | Compound | complications of delivery ([2]; human subjects, intravenous and subcutaneous delivery, preferred formulations) | discomfort at the injection site ([2]; humans, subcutaneous, about 1 mL) | period over which the peptide was stable ([1]; about 0.005 to 1.0 mg/mL, 4° C., inventive formulations) [months] | solubility at physiological pH [5]
at least 90% | at least 90% | comparable stability | rapidly appears in the blood plasma | 98 | 96 | 63 | 98 | 96 | 63 | 98 | 96 | 63 | at least 96% | 63 | at least 98% | CC[C@H](C)[C@H](NC(=O)[C@H](C)NC(=O)[C@H](CC(=O)O)NC(=O)[C@H](C)NC(=O)[C@@H](N)Cc1ccc(O)cc1)C(=O)N[C@@H](Cc1ccccc1)C(=O)N[C@H](C(=O)N[C@@H](CC(N)=O)C(=O)N[C@@H](CO)C(=O)N[C@@H](Cc1ccc(O)cc1)C(=O)N[C@@H](CCCNC(=N)N)C(=O)N[C@@H](CCCCN)C(=O)N[C@H](C(=O)N[C@@H](CC(C)C)C(=O)NCC(=O)N[C@@H](CCC(N)=O)C(=O)N[C@@H](CC(C)C)C(=O)N[C@@H](CO)C(=O)N[C@@H](C)C(=O)N[C@@H](CCCNC(=N)N)C(=O)N[C@@H](CCCCN)C(=O)N[C@@H](CC(C)C)C(=O)N[C@@H](CC(C)C)C(=O)N[C@@H](CCC(N)=O)C(=O)N[C@@H](CC(=O)O)C(=O)N[C@H](C(=O)N[C@@H](CCSC)C(=O)N[C@@H](CO)C(=O)N[C@@H](CCCNC(=N)N)C(=O)N[C@@H](CCC(N)=O)C(=O)N[C@@H](CCC(N)=O)C(=O)NCC(=O)N[C@@H](CCC(=O)O)C(=O)N[C@@H](CO)C(=O)N[C@@H](CC(N)=O)C(=O)N[C@@H](CCC(N)=O)C(=O)N[C@@H](CCC(=O)O)C(=O)N[C@@H](CCCNC(=N)N)C(=O)NCC(=O)N[C@@H](C)C(=O)N[C@@H](CCCNC(=N)N)C(=O)N[C@@H](C)C(=O)N[C@@H](CCCNC(=N)N)C(=O)N[C@@H](CC(C)C)C(N)=O)[C@@H](C)CC)C(C)C)[C@@H](C)O [GRF, GRF(1-44)amide] | no significant complications | no apparent discomfort |  | 
 |  |  |  |  |  |  |  |  |  |  |  |  |  |  |  | PTH(1-34)OH |  |  | 4 | up to 4 mg/mL
